Experimental data taken from ChEMBL document CHEMBL2040842, “Synthesis and Biochemical Testing of 3-(Carboxyphenylethyl)imidazo[2,1-f][1,2,4]triazines as Inhibitors of AMP Deaminase” (ACS Med Chem Lett, 2010).

Assays:
[1] = Inhibition of AMP deaminase
[2] = molecular target: T1, AMP deaminase 3 (Homo sapiens, UniProt Q01432); assay: Inhibition of human recombinant AMPD3-1b expressed in Sf9 cells
T1 sequence (Q01432 whole entry): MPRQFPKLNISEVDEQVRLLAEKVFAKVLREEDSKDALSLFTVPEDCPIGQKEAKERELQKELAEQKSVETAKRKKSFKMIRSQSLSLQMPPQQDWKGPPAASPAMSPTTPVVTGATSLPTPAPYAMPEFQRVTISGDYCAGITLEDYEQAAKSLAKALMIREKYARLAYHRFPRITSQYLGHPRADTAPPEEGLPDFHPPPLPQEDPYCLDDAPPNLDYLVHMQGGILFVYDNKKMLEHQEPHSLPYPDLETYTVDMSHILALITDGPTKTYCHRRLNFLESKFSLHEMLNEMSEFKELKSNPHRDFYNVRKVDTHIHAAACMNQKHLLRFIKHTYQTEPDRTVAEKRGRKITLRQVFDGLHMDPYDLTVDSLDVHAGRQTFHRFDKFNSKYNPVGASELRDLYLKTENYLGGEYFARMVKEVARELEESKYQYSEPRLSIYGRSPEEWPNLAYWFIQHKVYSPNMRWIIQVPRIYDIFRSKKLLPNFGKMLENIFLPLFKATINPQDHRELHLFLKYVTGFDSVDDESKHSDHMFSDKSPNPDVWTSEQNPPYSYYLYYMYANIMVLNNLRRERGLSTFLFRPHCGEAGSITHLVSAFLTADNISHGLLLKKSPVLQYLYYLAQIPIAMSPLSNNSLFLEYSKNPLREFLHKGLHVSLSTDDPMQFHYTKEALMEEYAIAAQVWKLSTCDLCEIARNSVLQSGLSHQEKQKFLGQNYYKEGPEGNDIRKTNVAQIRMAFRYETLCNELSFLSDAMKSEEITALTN

[3] = molecular target: AMP deaminase (Arabidopsis thaliana, UniProt O80452, V211M); assay: Inhibition of Arabidopsis recombinant AMPD deltaV211M mutant expressed in Sf9 cells
[4] = Inhibition of human recombinant AMPD2-1A/2 expressed in Sf9 cells
[5] = Inhibition of human recombinant AMPD1 deltaM54 mutant expressed in Sf9 cells
[6] = molecular target: T2, AMP deaminase 1 (Homo sapiens, UniProt P23109); assay: Inhibition of human skeletal muscle AMPD1; set-up: species or system Muscle tissue
T2 sequence (P23109 whole entry): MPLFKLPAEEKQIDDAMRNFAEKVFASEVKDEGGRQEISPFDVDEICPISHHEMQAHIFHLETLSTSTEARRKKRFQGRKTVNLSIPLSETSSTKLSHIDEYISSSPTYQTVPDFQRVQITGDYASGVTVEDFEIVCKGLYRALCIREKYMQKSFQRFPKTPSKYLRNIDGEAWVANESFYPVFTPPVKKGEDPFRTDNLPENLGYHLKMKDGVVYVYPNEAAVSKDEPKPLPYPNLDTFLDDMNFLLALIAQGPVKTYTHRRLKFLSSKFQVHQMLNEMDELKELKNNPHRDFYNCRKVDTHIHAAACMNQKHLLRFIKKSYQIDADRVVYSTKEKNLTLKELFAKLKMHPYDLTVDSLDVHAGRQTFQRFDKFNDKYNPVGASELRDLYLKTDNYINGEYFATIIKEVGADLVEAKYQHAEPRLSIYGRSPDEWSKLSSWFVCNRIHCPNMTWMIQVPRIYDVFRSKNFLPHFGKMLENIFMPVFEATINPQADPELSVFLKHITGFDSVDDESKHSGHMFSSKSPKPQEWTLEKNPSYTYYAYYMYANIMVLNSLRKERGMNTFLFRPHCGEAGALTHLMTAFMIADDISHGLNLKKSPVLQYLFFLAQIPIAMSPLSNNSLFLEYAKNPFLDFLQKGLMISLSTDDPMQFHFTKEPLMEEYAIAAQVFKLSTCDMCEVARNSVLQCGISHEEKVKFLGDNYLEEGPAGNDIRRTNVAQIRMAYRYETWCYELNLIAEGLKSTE

[7] = Inhibition of porcine heart AMPD3; set-up: species or system Sus scrofa

Sequence of AMP deaminase (O80452 whole entry V211M): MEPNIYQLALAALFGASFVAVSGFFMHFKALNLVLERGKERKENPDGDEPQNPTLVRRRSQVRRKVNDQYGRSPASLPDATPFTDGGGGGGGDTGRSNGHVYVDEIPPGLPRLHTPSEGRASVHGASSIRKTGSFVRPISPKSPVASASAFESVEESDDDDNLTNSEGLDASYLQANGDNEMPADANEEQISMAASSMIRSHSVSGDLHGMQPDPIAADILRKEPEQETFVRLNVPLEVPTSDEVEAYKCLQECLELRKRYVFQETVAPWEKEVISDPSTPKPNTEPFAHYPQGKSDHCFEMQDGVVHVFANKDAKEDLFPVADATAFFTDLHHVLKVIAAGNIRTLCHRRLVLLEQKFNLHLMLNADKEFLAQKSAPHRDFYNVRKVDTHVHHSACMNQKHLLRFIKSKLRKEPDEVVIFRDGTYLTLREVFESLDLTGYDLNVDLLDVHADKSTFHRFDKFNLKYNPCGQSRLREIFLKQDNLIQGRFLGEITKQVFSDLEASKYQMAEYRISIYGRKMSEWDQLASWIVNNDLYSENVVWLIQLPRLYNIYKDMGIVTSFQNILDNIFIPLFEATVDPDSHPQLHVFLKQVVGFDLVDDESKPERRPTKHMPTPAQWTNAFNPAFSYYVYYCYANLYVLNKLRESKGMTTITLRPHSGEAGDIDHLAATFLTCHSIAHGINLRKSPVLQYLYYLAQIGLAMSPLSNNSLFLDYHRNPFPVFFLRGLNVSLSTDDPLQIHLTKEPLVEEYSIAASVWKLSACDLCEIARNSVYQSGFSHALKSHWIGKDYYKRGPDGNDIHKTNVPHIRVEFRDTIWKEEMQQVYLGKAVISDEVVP

Row | Compound | IC50 [2] [µM] | IC50 [3] [µM] | IC50 [4] [µM] | IC50 [5] [µM] | also measured
1 | O=P(O)(O)OC[C@H]1O[C@@H](n2cnc3c2N=CNC[C@H]3O)[C@H](O)[C@@H]1O | – | – | – | – | Ki [1]: 5.5 pM
2 | O=C(O)c1cccc(CCc2cnc3cncnn23)c1 | 370 | 1400 | 100 | 310 | –
3 | O=C(O)c1cc2c(c(CCc3cnc4cncnn34)c1)CCCC2 | 0.9 | 200 | 2.3 | 5.7 | –
4 | O=C(O)c1cc(CCn2cnc3c2N=CNCC3O)c2c(c1Br)CCCC2 (stereo unspecified) | – | – | – | – | IC50 [6]: 0.5 µM
5 | O=C(O)c1cccc(CCn2cnc3c2NC=NCC3O)c1 (stereo unspecified) | – | – | – | – | Ki [7]: 0.51 µM
